Measured values taken from US10982188B2, “Synthetic retina” (University of Newcastle Upon Tyne, priority 2014, dated 2021).

Columns and labels:
[1] = tested on: hESC and hiPSC derived photoreceptors; assay: Calcium imaging (Fura-2) of cGMP response; format: cell-based, human; conditions: for effect on cGMP-mediated increase in Ca2+ influx: cobalt chloride and magnesium chloride together in the perfusate with cGMP
Excerpt: In order to determine whether developing photoreceptors contained the machinery necessary for transduction, the inventors plated differentiating EBs onto poly-L-ornithine and laminin-coated 6 well plates for 15 days prior to optical recording using calcium imaging. Membrane disks in the outer segment of native photoreceptors contain a photopigment (for example the rod-specific pigment rhodopsin consists of opsin+retinal), and the cell membrane in outer segments contains cyclic guanosine monophosphate (cGMP)-gated cationic (sodium and calcium) channels. In the dark, cGMP levels are high and the photoreceptors are maintained in a depolarised state via influx of Na^+ and Ca^2+ through these cGMP-gated channels which are in an open state. Exposure to light causes the retinal part of the photopigment to isomerise to trans-retinal, leading to activation of multiple G-proteins and phosphodiesterase 6 which in turns degrades cGMP, resulting in closure of the channels and membrane hyperpolarisation. To test if the hESC and hiPSC derived photoreceptors respond in a similar manner, on day 30, 45 and 60 of differentiation, cells were exposed to flashes of red, green, blue or white light, or to membrane-permeable 8-br-cGMP. As 8-br-cGMP opens the cationic (Na^+ and Ca^2+) channel associated with phototransduction, it triggers a Ca^2+ influx in photoreceptors known as the inward dark current. Loading cells with the fluorescent Ca^2+ indicator Fura-2 therefore enables the visualisation of changes in intracellular calcium associated with opening or closing of the cGMP-gated channel, with a decrease in fluorescence representing an increase in calcium influx.
EBs were dark adapted for 24 hours prior to recording then loaded with Fura-2 AM (10 μM, Molecular probes/Invitrogen) for 45 min at 37° C. (95% O2/5% CO2) followed by perfusion (1 ml/minute) with oxygenated artificial Cerebrospinal Fluid (aCSF; 118 mM NaCl, 25 mM NaHCO3, 1 mM NaH2PO4, 3 mM KCl, 1 mM MgCl2, 2 mM CaCl2, 10 mM glucose) for one hour. Cells were exposed to 8-br-cGMP (cGMP, 1 mM, Sigma) in aCSF. Control recordings were performed with aCSF alone or with 8-br-cGMP in CaCl2-free aCSF supplemented with calcium channel blocker Cobalt (II) chloride (CoCl2, 4 mM, AnalaR) and 10 mM HEPES. Fluorescence was monitored using an inverted Olympus IX71 microscope and images (excitation 380 nm, 800 ms exposure) acquired using a Quantem 512SC camera (Photometrics) and MetaMorph Software (Molecular Devices). For each stimulation 20 seconds baseline activity was recorded. Fluorescence change was analysed using the formula % Δl/lo=(l1−lo)×100/lo, where lo was the average cellular fluorescence during baseline activity and l1 following stimulation. Significance was determined using a student's t-test (P<0.01).

IGF-IR = biological target: T1, IGF-IR (Homo sapiens, UniProt P08069); assay: IGF-1 receptor signalling interference: optic vesicle/optic cup formation and survival of EBs; format: cell-based; conditions: for optic vesicle production from differentiating EBs: 7 μM
T1 construct: endogenous in cells; host or cells: hESC (line H9, WiCell)-derived embryoid bodies
Protocol: To confirm the contribution of the IGF-1 signalling pathway in this process, the inventors differentiated cells in the presence of a pharmacological inhibitor of the IGF-IR (pi(IR)) or a neutralising antibody directed against the IGF-II receptor, IGF-IIR ((n)IIR), in the presence (+) or absence (−) of IGF-1 supplementation (FIG. 5I, J).
hESCs were expanded and differentiated as described. For interference of IGF-1 receptor signalling an IGF-IR-specific pharmacological inhibitor ([7 μM], AG1024, Stratech) was added to differentiation media for the entire differentiation period. To block/neutralise IGF-II receptor signalling, media was supplemented with goat IgG anti-human IGF-IIR antibody ([0.25 μg/ml], AF2447, R&D) throughout differentiation.

differentiating hESCs = assay: Optic vesicle and optic cup formation from EBs differentiated in 3D with IGF-1; format: cell-based, human
Protocol: hESC (line H9, WiCell) and hiPSC lines Clone 4^25 and NHDF^26 were expanded and differentiated as previously described.^14 For IGF-1 treatment, cultures were differentiated in VNIM media^14 supplemented with recombinant human IGF-1 (5 ng/ml, Sigma) until day 37, then in basal Knockout serum-free media^14 with 10 ng/ml IGF-1 until day 90 (FIG. 1A). Control cultures were differentiated in parallel in the absence of IGF-1. Time-lapse capture of culture morphology was achieved using a BioStation CT (Nikon).

[2] = tested on: human pluripotent stem cells; assay: Modified differentiation media, mTeSR1 feeder-free adapted cells: optic cup formation; format: cell-based; conditions: 2 and 3 fold increase in IGF-1 concentration, FIG. 15
Protocol: Human pluripotent stem cells were grown under feeder free conditions the effect of freeder free conditions on their differentiation potential to synthetic retina investigated.
mTeSR1 media (Stem Cell Technologies) is a highly specialised serum-free and complete media designed for feeder-free culture. Cells to this feeder-free technique and subjected to differentiation studies using the IGF-1 factor as discussed above.

T1 sequence (P08069 31-1367): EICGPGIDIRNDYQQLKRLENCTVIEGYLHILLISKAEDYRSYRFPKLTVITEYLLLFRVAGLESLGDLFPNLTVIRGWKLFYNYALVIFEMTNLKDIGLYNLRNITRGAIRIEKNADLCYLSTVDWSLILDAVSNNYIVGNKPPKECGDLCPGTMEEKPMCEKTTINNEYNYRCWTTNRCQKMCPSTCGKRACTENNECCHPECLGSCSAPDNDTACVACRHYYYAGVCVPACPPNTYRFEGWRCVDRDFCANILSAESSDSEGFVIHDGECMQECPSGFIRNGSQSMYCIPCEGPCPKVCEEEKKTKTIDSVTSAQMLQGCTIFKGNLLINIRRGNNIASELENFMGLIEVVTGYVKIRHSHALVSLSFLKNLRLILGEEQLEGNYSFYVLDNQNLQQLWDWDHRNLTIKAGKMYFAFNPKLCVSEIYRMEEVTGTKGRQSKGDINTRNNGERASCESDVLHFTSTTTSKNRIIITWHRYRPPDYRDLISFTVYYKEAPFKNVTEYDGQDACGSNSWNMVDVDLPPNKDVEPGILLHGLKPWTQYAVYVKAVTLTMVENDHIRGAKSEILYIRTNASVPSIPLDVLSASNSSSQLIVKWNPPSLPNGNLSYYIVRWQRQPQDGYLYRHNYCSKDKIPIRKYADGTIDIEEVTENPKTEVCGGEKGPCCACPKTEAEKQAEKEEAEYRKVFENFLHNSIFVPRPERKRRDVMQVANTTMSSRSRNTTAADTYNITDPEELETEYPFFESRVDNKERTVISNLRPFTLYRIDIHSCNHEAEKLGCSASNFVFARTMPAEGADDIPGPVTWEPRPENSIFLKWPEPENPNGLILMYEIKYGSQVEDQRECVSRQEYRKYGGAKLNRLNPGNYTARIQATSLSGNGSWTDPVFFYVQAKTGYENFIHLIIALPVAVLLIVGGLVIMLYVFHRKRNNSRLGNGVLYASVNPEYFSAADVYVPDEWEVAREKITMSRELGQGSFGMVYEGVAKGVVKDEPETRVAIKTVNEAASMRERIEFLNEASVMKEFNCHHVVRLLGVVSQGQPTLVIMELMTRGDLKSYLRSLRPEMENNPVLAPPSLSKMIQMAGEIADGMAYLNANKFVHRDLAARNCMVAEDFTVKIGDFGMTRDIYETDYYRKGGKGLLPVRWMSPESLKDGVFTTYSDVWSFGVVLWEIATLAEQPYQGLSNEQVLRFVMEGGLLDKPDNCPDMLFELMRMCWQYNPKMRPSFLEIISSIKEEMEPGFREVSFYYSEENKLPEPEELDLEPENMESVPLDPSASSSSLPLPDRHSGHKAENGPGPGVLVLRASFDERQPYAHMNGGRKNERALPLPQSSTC

## Nc1nc2c(nc(Br)n2[C@@H]2O[C@@H]3COP(=O)(O)O[C@H]3[C@H]2O)c(=O)[nH]1 [8-br-cGMP]
[1]; IGF-1 treated cultures, 1 mM in aCSF
  Fura-2 fluorescence change (Ca2+ influx): decreased fluorescence

## CC(C)(C)c1cc(C=C(C#N)C#N)cc(Br)c1O [(pi)IR]
IGF-IR; after day 45, with and without exogenous IGF-1
  viability of cultures: did not remain viable
IGF-IR; day 45
  optic cups: undetectable
IGF-IR; day 45, absence of IGF-1 ((pi)IR-), p=0.021
  optic vesicle production from differentiating EBs: significantly reduced
IGF-IR; day 45, presence of IGF-1 ((pi)IR+), p=0.023
  optic vesicle production from differentiating EBs: significantly reduced
IGF-IR; days of differentiation, with and without IGF-1
  survival of EBs: ≤ 50 days

## [Cl-].[Cl-].[Co+2] [cobalt chloride, Cobalt (II) chloride]
[1]
  effect on cGMP-mediated increase in Ca2+ influx: abolished

## [Cl-].[Cl-].[Mg+2] [magnesium chloride]
[1]
  effect on cGMP-mediated increase in Ca2+ influx: abolished

## IGF-1: recombinant human IGF-1 (Sigma), single-chain 70-amino-acid protein, SEQ ID NO:1
[1]; by day 90, 8-br-cGMP stimulation
  cGMP respondent cultures: 45.3%
[1]; day 45 of differentiation, 8-br-cGMP stimulation
  cGMP respondent cultures: 24.1%
Differentiating hESCs; IGF-1 in differentiation media vs control, FIG. 5I
  frequency of optic vesicle formation: significantly increased
Differentiating hESCs; by day 15
  optic vesicle formation relative to control levels: double
Differentiating hESCs; by day 60
  increase in optic vesicle and optic cup formation vs control: 4 fold
Differentiating hESCs; day 60, FIG. 5J, control 3.9%
  EBs with optic cup formation: 17.4%
[2]
  formation of optic cups on increasing concentration: did not cause any significant changes
